Source: paper PMC4292804 (Journal of pharmacokinetics and pharmacodynamics, 2013)
Read-outs that look alike come from different tables or passages of the source.

Tests used:
[1] = Mdr1a/b constitutive knockout (KO), mouse, in vivo, iv, 3 mg/kg, 12 h
[2] = Docetaxel pharmacokinetic; settings: 3 mg/kg i.v.
[3] = system: tubulin; settings: higher than paclitaxel; cited from earlier work
[4] = system: ABCB1; settings: homozygous 1236C > T polymorphism in the ABCB1 gene; cited from earlier work
[5] = system: ABCB1; test: PBPK model: saturable ABCB1; design: species or system mice; settings: value (SD) by parameter estimation, FVB data
[6] = both FVB and KO mice; intravenous; cannulated gallbladder; cited from earlier work
[7] = PBPK model of docetaxel: simulations and parameter estimation; design: species or system mice; settings: for % Difference between observed FVB AUC and predicted FVB AUC / % Difference between observed KO AUC and predicted KO AUC: 100 × (predicted − observed)/observed
[8] = system: CYP3A4; settings: PBPK model parameter, KO mouse model; scaled from in vitro Vmax of ref 27
[9] = system: tubulin; settings: determined for colchicine, used for docetaxel; cited from earlier work
[10] = system: CYP3A4; settings: cited from earlier work
[11] = Docetaxel pharmacokinetic; type: in vivo, mice; settings: for AUC: FVB, mouse, iv, 3 mg/kg
[12] = cited from earlier work
[13] = ref Kemper et al. 46; cited from earlier work
[14] = system: CYP3A4; settings: cited from earlier work; remark: listed apart in the source
[15] = value (SD) by parameter estimation, FVB and KO data

Structure (SMILES): CC(=O)O[C@@]12CO[C@@H]1C[C@H](O)[C@@]1(C)C(=O)[C@H](O)C3=C(C)[C@@H](OC(=O)[C@H](O)[C@@H](NC(=O)OC(C)(C)C)c4ccccc4)C[C@@](O)([C@@H](OC(=O)c4ccccc4)[C@H]21)C3(C)C [docetaxel, Docetaxel]
- Unchanged docetaxel recovered in the feces [1]: less than 1.5 % of the administered dose
- Increase in docetaxel concentration in the liver of KO versus FVB mice ([2]; 12 h): 59%
- Docetaxel plasma concentrations, FVB versus KO mice ([2]; during the study (1–12 h)): did not note differences
- Docetaxel tissue concentration, KO versus FVB mice ([2]; lung, kidney, heart, intestine and brain at 2, 4, 8 and 12 h): statistically significant increase
- Binding affinity relative to paclitaxel [3]: approximately 1.9 fold
- Decrease in docetaxel clearance [4]: 25%
- PGP transport Brain Vmax (VMAXT_brn) [5]: 14,581 (3.232) nmol/h/kg
- PGP transport Heart Vmax (VMAXT_hrt) [5]: 14,599 (3.449) nmol/h/kg
- PGP transport Kidney Vmax (VMAXT_kid) [5]: 3,003 (0.012) nmol/h/kg
- PGP transport Km (KMT) [5]: 28 (0.007) nmol/kg
- PGP transport Lung Vmax (VMAXT_lng) [5]: 340,176 (13.151) nmol/h/kg
- PGP transport Slowly perfused Vmax (VMAXT_sp) [5]: 10 (0.002) nmol/h/kg
- Unchanged drug recovered in the bile [6]: 3–4 % of the dose
- FVB tubular reabsorption rate constant (K_RABS_fvb) ([7]; FVB, value (SD) by parameter estimation): 0.02 (0.001) h^−1
- KO tubular reabsorption rate constant (K_RABS_ko) ([7]; KO, value (SD) by parameter estimation): 1.8 (0.001) h^−1
- % Difference between observed FVB AUC and predicted FVB AUC ([7]; brain): −4.3%
- % Difference between observed KO AUC and predicted KO AUC ([7]; brain): +14.8%
- % Difference between observed FVB AUC and predicted FVB AUC ([7]; heart): −11.3%
- % Difference between observed KO AUC and predicted KO AUC ([7]; heart): +2.9%
- First-order liver metabolism rate constant (K_LMET) ([7]; hepatic CYP3A4 metabolism, value (SD) by parameter estimation): 3,664 (1.444) h^−1
- First-order FVB intestine metabolism rate constant (K_IMET_fvb) ([7]; intestinal CYP3A4 metabolism, FVB, value (SD) by parameter estimation): 19 (0.008) h^−1
- % Difference between observed FVB AUC and predicted FVB AUC ([7]; intestine): −3.1%
- % Difference between observed KO AUC and predicted KO AUC ([7]; intestine): +0.2%
- % Difference between observed FVB AUC and predicted FVB AUC ([7]; kidney): +6.3%
- % Difference between observed KO AUC and predicted KO AUC ([7]; kidney): −0.7%
- % Difference between observed FVB AUC and predicted FVB AUC ([7]; liver): −8.6%
- % Difference between observed KO AUC and predicted KO AUC ([7]; liver): +3.0%
- % Difference between observed FVB AUC and predicted FVB AUC ([7]; lung): −7.9%
- % Difference between observed KO AUC and predicted KO AUC ([7]; lung): +5.1%
- % Difference between observed FVB AUC and predicted FVB AUC ([7]; plasma): −2.9%
- % Difference between observed KO AUC and predicted KO AUC ([7]; plasma): +14.8%
- Tubulin binding capacity, Slowly perfused (TB_sp) ([7]; value (SD) by parameter estimation): 521 (0.231) nmol/kg
- Partition coefficient FVB intestine:plasma (P_int_fvb) ([7]; value (SD) by parameter estimation, FVB): 195 (0.008) Ratio
- Partition coefficient Brain:plasma (P_brn) [7, 15]: 58 (0.013) Ratio
- Partition coefficient Heart:plasma (P_hrt) [7, 15]: 990 (0.231) Ratio
- Partition coefficient Kidney:plasma (P_kid) [7, 15]: 995 (0.222) Ratio
- Partition coefficient Liver:plasma (P_liv) [7, 15]: 7,088 (1.653) Ratio
- Partition coefficient Lung:plasma (P_lng) [7, 15]: 2,376 (0.546) Ratio
- Partition coefficient Slowly perfused:plasma (P_sp) [7, 15]: 748 (0.174) Ratio
- Partition coefficient KO intestine:plasma (P_int_ko) ([7]; value (SD) by parameter estimation, KO): 397 (33.970) Ratio
- Saturable KO intestine metabolism Vmax (VMAXM_int_ko) [8]: 2,654 nmol/h/kg
- Tubulin binding capacity, Brain (TB_brn) [9]: 10,710 nmol/kg
- Tubulin binding capacity, Heart (TB_hrt) [9]: 1,970 nmol/kg
- Tubulin binding capacity, Intestine (TB_int) [9]: 1,080 nmol/kg
- Tubulin binding capacity, Kidney (TB_kid) [9]: 1,470 nmol/kg
- Tubulin binding capacity, Liver (TB_liv) [9]: 3,510 nmol/kg
- Tubulin binding capacity, Lung (TB_lng) [9]: 2,580 nmol/kg
- Vmax for CYP3A4 metabolism of docetaxel to M2 ([10]; in vitro): 14 pmol/min/mg microsomal protein
- Km ([10]; read-out: Km for CYP3A4 metabolism of docetaxel to M2): 0.6 µM
- Unchanged docetaxel recovered in the feces ([11]; FVB mice, 12 h, 3 mg/kg i.v.): less than 1.5 % of the administered dose
- AUC ([11]; brain): 0.184 µM·h
- AUC ([11]; heart): 13 µM·h
- AUC ([11]; intestine): 3.21 µM·h
- AUC ([11]; kidney): 14.5 µM·h
- AUC ([11]; liver): 4.34 µM·h
- AUC ([11]; lung): 18.9 µM·h
- AUC ([11]; plasma): 0.523 µM·h
- Bound to plasma proteins [12]: 93%
- Fraction of docetaxel unbound to plasma proteins (FU) ([12]; unbound fraction in the blood): 0.07
- Increase in docetaxel exposure in the brain, KO versus FVB mice [13]: +516%
- Docetaxel cleared from plasma relative to wild-type mice ([14]; mice with CYP3A4 expression in only the intestine): 21%
- Docetaxel metabolites M1–4 recovered in the small intestine relative to wild-type mice ([14]; transgenic mice with no CYP3A4 expression in the liver): 13.5%
